Test results: patent US9475817B2 (BRISTOL-MYERS SQUIBB COMPANY, priority 2012, dated 2016)
Counter-ions that a name gives are not always drawn.

Columns and labels:
CK1ε = CK1ε (Homo sapiens (Human), UniProt P49674); assay: CK1ε kinase assay (Caliper LabChip, fluoresceinated peptide substrate); format: biochemical; settings: 200 pM CK1ε, 50 μM ATP, 1.5 μM peptide substrate, 22 hours room temperature
Method: (§1) CK1ε and CK1δ Kinase Assays
(§2) The kinase assay was performed in V-bottom 384-well plates. […] The reaction was incubated at room temperature for 22 hours and terminated by adding 45 μl of 35 mM EDTA to each sample. […] Compounds were dissolved at 10 mM in dimethylsulfoxide (DMSO) and evaluated at eleven concentrations. IC50 values were derived by non-linear regression analysis.

CK1δ = CK1δ (Homo sapiens (Human), UniProt P48730); assay: CK1δ kinase assay (Caliper LabChip, fluoresceinated peptide substrate); format: biochemical; settings: 200 pM CK1δ, 50 μM ATP, 1.5 μM peptide substrate, 22 hours room temperature
Method: as §1, §2

Chain of CK1ε (P49674 whole entry): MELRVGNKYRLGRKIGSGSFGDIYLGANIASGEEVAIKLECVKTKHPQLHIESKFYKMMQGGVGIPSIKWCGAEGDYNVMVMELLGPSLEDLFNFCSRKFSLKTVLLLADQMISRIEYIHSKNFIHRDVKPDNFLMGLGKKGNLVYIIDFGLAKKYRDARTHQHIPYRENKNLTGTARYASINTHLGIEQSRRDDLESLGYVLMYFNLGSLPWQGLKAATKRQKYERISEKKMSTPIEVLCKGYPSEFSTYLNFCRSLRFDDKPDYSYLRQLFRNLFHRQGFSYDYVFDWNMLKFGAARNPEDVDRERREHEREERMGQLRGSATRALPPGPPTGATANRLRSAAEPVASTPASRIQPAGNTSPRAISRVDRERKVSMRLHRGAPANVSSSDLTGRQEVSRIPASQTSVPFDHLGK
Chain of CK1δ (P48730 whole entry): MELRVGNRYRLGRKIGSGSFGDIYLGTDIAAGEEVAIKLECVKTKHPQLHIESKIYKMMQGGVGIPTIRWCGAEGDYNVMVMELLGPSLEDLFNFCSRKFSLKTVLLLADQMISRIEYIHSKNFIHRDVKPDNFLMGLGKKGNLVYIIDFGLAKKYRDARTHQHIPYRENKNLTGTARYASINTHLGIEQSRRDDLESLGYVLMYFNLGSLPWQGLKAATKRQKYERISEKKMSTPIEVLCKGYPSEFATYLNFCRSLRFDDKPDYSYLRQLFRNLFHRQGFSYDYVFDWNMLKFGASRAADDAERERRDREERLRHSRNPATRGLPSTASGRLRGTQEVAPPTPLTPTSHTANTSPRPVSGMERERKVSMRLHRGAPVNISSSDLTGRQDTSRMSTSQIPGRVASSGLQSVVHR

IC50 (CK1ε) [nM] | IC50 (CK1δ) [nM] | SMILES
3.6 | 0.8 | COc1cc(C(=O)Nc2cn3nc(-c4c(-c5ccc(F)cc5)nn(C)c4N4CCNCC4)ccc3n2)ccn1 [Compound 118, N-(6-(3-(4-Fluorophenyl)-1-methyl-5-(piperazin-1-yl)-1H-pyrazol-4-yl)imidazo[1,2-b]pyridazin-2-yl)-2-methoxyisonicotinamide]
5 | 2.7 | CN1CCC(c2c(-c3ccc4nc(NC(=O)c5ccncc5)cn4n3)c(-c3ccc(F)cc3)nn2C)CC1 [Compound 165, N-(6-(3-(4-Fluorophenyl)-1-methyl-5-(1-methylpiperidin-4-yl)-1H-pyrazol-4-yl)imidazo[1,2-b]pyridazin-2-yl)isonicotinamide]
38.5 | 7.1 | COc1ccncc1C(=O)Nc1cn2nc(-c3cn(C)nc3-c3ccc(F)cc3)ccc2n1 [Compound 64, N-(6-(3-(4-fluorophenyl)-1-methyl-1H-pyrazol-4-yl)imidazo[1,2-b]pyridazin-2-yl)-4-methoxynicotinamide]
6.3 | 3.9 | CCN(CC)Cc1ccc(C(=O)Nc2cn3nc(-c4cn(C)nc4-c4ccc(F)cc4)ccc3n2)cc1 [Compound 31, 4-((diethylamino)methyl)-N-(6-(3-(4-fluorophenyl)-1-methyl-1H-pyrazol-4-yl)imidazo[1,2-b]pyridazin-2-yl)benzamide]
43.4 | 10.7 | Cn1cc(-c2ccc3nc(NC(=O)c4ccncn4)cn3n2)c(-c2ccc(F)cc2)n1 [Compound 38, N-(6-(3-(4-fluorophenyl)-1-methyl-1H-pyrazol-4-yl)imidazo[1,2-b]pyridazin-2-yl)pyrimidine-4-carboxamide]
15.8 | 4.8 | Cn1cc(-c2ccc3nc(NC(=O)c4cc(F)cc(F)c4)cn3n2)c(-c2ccc(F)cc2)n1 [Compound 43, 3,5-difluoro-N-(6-(3-(4-fluorophenyl)-1-methyl-1H-pyrazol-4-yl)imidazo[1,2-b]pyridazin-2-yl)benzamide]
4 | 3 | Cc1nc(-c2cccnc2)sc1C(=O)Nc1cn2nc(-c3c(-c4ccc(F)cc4)nn(C)c3C3CCN(C)CC3)ccc2n1 [Compound 175, N-(6-(3-(4-Fluorophenyl)-1-methyl-5-(1-methylpiperidin-4-yl)-1H-pyrazol-4-yl)imidazo[1,2-b]pyridazin-2-yl)-4-methyl-2-(pyridin-3-yl)thiazole-5-carboxamide]
13.1 | 5.5 | Cn1cc(-c2ccc3nc(NC(=O)c4cnn(C)c4Cl)cn3n2)c(-c2ccc(F)cc2)n1 [Compound 60, 5-chloro-N-(6-(3-(4-fluorophenyl)-1-methyl-1H-pyrazol-4-yl)imidazo[1,2-b]pyridazin-2-yl)-1-methyl-1H-pyrazole-4-carboxamide]
0.6 | 0.4 | Cn1nc(-c2ccc(F)cc2)c(-c2ccc3nc(NC(=O)c4ccnc(N5CCOCC5)c4)cn3n2)c1C1CCN(CC(N)=O)CC1 [Compound 163, N-(6-(5-(1-(2-Amino-2-oxoethyl)piperidin-4-yl)-3-(4-fluorophenyl)-1-methyl-1H-pyrazol-4-yl)imidazo[1,2-b]pyridazin-2-yl)-2-morpholinoisonicotinamide]
64 | 11.9 | CCc1ccc(C(=O)Nc2cn3nc(-c4cn(C)nc4-c4ccc(F)cc4)ccc3n2)nc1 [Compound 76, 5-ethyl-N-(6-(3-(4-fluorrophenyl)-1-methyl-1H-pyrazol-4-yl)imidazo[1,2-b]pyridazin-2-yl)picolinamide]
3.2 | 0.4 | Cn1nc(-c2ccc(F)cc2)c(-c2ccc3nc(NC(=O)c4ccncc4)cn3n2)c1-c1ccncc1 [Compound 204, N-(6-(3-(4-Fluorophenyl)-1-methyl-5-(pyridin-4-yl)-1H-pyrazol-4-yl)imidazo[1,2-b]pyridazin-2-yl)isonicotinamide]
9.8 | 0.9 | Cn1nc(-c2ccc(F)cc2)c(-c2ccc3nc(NC(=O)c4cccc(-c5cccnc5)c4)cn3n2)c1-c1ccncc1 [Compound 205, N-(6-(3-(4-Fluorophenyl)-1-methyl-5-(pyridin-4-yl)-1H-pyrazol-4-yl)imidazo[1,2-b]pyridazin-2-yl)-3-(pyridin-3-yl)benzamide]
31.4 | 5.4 | Cn1cc(-c2ccc3nc(NC(=O)c4csc(-c5ccncc5)n4)cn3n2)c(-c2ccc(F)cc2)n1 [Compound 8, N-(6-(3-(4-fluorophenyl)-1-methyl-1H-pyrazol-4-yl)imidazo[1,2-b]pyridazin-2-yl)-2-(pyridin-4-yl)thiazole-4-carboxamide]
1.8 | 0.3 | Cn1nc(-c2ccc(F)cc2)c(-c2ccc3nc(NC(=O)c4ccncc4)cn3n2)c1C1CCOCC1 [Compound 197, N-(6-(3-(4-Fluorophenyl)-1-methyl-5-(tetrahydro-2H-pyran-4-yl)-1H-pyrazol-4-yl)imidazo[1,2-b]pyridazin-2-yl)isonicotinamide]
7.9 | 0.7 | Cc1nc(-c2ccncc2)sc1C(=O)Nc1cn2nc(-c3c(-c4ccc(F)cc4)nn(C)c3N3CCOCC3)ccc2n1 [Compound 147, N-(6-(3-(4-fluorophenyl)-1-methyl-5-morpholino-1H-pyrazol-4-yl)imidazo [1,2-b]pyridazin-2-yl)-4-methyl-2-(pyridin-4-yl)thiazole-5-carboxamide]
14.4 | 1.2 | Cn1nc(-c2ccc(F)cc2)c(-c2ccc3nc(NC(=O)c4ccnc(F)c4)cn3n2)c1N1CCN(C(=O)CC(F)(F)F)CC1 [Compound 121, 2-Fluoro-N-(6-(3-(4-fluorophenyl)-1-methyl-5-(4-(3,3,3-trifluoropropanoyl)piperazin-1-yl)-1H-pyrazol-4-yl)imidazo[1,2-b]pyridazin-2-yl)isonicotinamide]
23.4 | 5.7 | Cn1cc(-c2ccc3nc(NC(=O)c4ccc(C#N)c(F)c4)cn3n2)c(-c2ccc(F)cc2)n1 [Compound 48, 4-cyano-3-fluoro-N-(6-(3-(4-fluorophenyl)-1-methyl-1H-pyrazol-4-yl)imidazo[1,2-b]pyridazin-2-yl)benzamide]
11 | 3.3 | Cc1ncccc1C(=O)Nc1cn2nc(-c3cn(C)nc3-c3ccc(F)cc3)ccc2n1 [Compound 78, N-(6-(3-(4-fluorophenyl)-1-methyl-1H-pyrazol-4-yl)imidazo[1,2-b]pyridazin-2-yl)-2-methylnicotinamide]
0.3 | 0.3 | Cn1nc(-c2ccc(F)cc2)c(-c2ccc3nc(NC(=O)c4ccnc(F)c4)cn3n2)c1C1CCN(C(=O)c2cncs2)CC1 [Compound 154, 2-fluoro-N-(6-(3-(4-fluorophenyl)-1-methyl-5-(1-(thiazole-5-carbonyl)piperidin-4-yl)-1H-pyrazol-4-yl)imidazo[1,2-b]pyridazin-2-yl)isonicotinamide]
554 | 97 | Cn1cc(-c2ccc3nc(NC(=O)c4ccncc4)c(-c4ccncc4)n3n2)c(-c2ccc(F)cc2)n1 [Compound 194, N-(6-(3-(4-Fluorophenyl)-1-methyl-1H-pyrazol-4-yl)-3-(pyridin-4-yl)imidazo[1,2-b]pyridazin-2-yl)isonicotinamide, 2 TFA]
25.8 | 7.1 | Cn1cc(-c2ccc3nc(NC(=O)C4CCC4)cn3n2)c(-c2ccc(F)cc2)n1 [Compound 89, N-(6-(3-(4-fluorophenyl)-1-methyl-1H-pyrazol-4-yl)imidazo[1,2-b]pyridazin-2-yl)cyclobutanecarboxamide]
50.1 | 7 | Cn1cc(-c2ccc3nc(NC(=O)C4CC4)cn3n2)c(-c2ccc(F)cc2)n1 [Compound 85, N-(6-(3-(4-fluorophenyl)-1-methyl-1H-pyrazol-4-yl)imidazo[1,2-b]pyridazin-2-yl)cyclopropanecarboxamide]
0.3 | 0.2 | Cn1nc(-c2ccc(F)cc2)c(-c2ccc3nc(NC(=O)c4ccnc(F)c4)cn3n2)c1C1CCN(C[C@@H](O)C(F)(F)F)CC1 [Compound 158, (R)-2-Fluoro-N-(6-(3-(4-fluorophenyl)-1-methyl-5-(1-(3,3,3-trifluoro-2-hydroxypropyl)piperidin-4-yl)-1H-pyrazol-4-yl)imidazo[1,2-b]pyridazin-2-yl)isonicotinamide]
13.3 | 14.2 | COc1cccc(C(=O)Nc2cn3nc(-c4cn(C)nc4-c4ccc(F)cc4)ccc3n2)n1 [Compound 67, N-(6-(3-(4-fluorophenyl)-1-methyl-1H-pyrazol-4-yl)imidazo[1,2-b]pyridazin-2-yl)-6-methoxypicolinamide]
153 | 24.5 | Cn1cc(-c2ccc3nc(NC(=O)c4ccccc4)c(Cl)n3n2)c(-c2ccc(F)cc2)n1 [Compound 191, N-(3-Chloro-6-(3-(4-fluorophenyl)-1-methyl-1H-pyrazol-4-yl)imidazo[1,2-b]pyridazin-2-yl)benzamide]
21.2 | 5.6 | COc1ccc(F)c(C(=O)Nc2cn3nc(-c4cn(C)nc4-c4ccc(F)cc4)ccc3n2)c1 [Compound 44, 2-fluoro-N-(6-(3-(4-fluorophenyl)-1-methyl-1H-pyrazol-4-yl)imidazo[1,2-b]pyridazin-2-yl)-5-methoxybenzamide]
13.7 | 3.7 | Cc1nc(-c2ccncc2)sc1C(=O)Nc1cn2nc(-c3cn(C)nc3-c3ccc(F)cc3)ccc2n1 [Compound 4, N-(6-(3-(4-fluorophenyl)-1-methyl-1H-pyrazol-4-yl)imidazo[1,2-b]pyridazin-2-yl)-4-methyl-2-(pyridin-4-yl)thiazol-5-carboxamide]
232 | 34.6 | Cn1cc(-c2ccc3nc(NC(=O)c4ccc(C(F)(F)F)cn4)cn3n2)c(-c2ccc(F)cc2)n1 [Compound 74, N-(6-(3-(4-fluorophenyl)-1-methyl-1H-pyrazol-4-yl)imidazo[1,2-b]pyridazin-2-yl)-5-(trifluoromethyl) picolinamide]
